The IC50 is the point on the concentration scale where inhibition reaches its midpoint. Read a low IC50 as higher potency.

PD-L1 His protein / PD-1 Fc protein, sequence (Q9NZQ7 19-238 limits assumed): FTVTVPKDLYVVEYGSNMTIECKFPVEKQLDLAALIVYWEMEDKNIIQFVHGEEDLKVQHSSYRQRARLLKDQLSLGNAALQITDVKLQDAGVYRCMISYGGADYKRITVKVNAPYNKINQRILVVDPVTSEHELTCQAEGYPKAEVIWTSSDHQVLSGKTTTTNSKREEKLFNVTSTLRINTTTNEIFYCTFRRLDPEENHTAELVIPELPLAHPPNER

The experiment addresses PD-L1 His protein / PD-1 Fc protein (Homo sapiens, UniProt Q9NZQ7). The experiment is described as follows: HTRF Assay (PD-1/PD-L1 interaction). In kind it is binding. The note with it: PD-L1 His 6 nM, PD-1 Fc 6 nM. In outline:
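Compounds tested from 20 μM down to 0.001 μM (3-fold) against 6 nM PD-L1 His and 6 nM PD-1 Fc, 15 min room temperature incubation. Detection after 1 h at room temperature with Tb cryptate anti-6HIS and XL665 anti-human IgG reagents (mixture at 0.35 nM and 6.7 nM), HTRF signal.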
`Cc1c(COc2cc(OCc3cncc(C#N)c3)c(CN3CC(CO)C3)cc2Cl)cccc1-c1cccc(-c2ccc3c(c2)C(=O)N(C)CC(=O)N3CCN2CC(CO)C2)c1C` [Example 26, 5-((4-Chloro-5-((3′-(1-(2-(3-(hydroxymethyl)azetidin-1-yl)ethyl)-4-methyl-2,5-dioxo-2,3,4,5-tetrahydro-1H-benzo[e][1,4]diazepin-7-yl)-2,2′-dimethyl-[1,1′-biphenyl]-3-yl)methoxy)-2-((3-(hydroxymethyl)azetidin-1-yl)methyl)phenoxy)methyl)nicotinonitrile] came in with an IC50 of 0.7 nM. This counts as sub-nanomolar. In turn, `COc1nc(-c2cccc(-c3cccc(-c4ccn5c(=O)c(CNC[C@@H](C)O)cnc5c4)c3Cl)c2Cl)ccc1CNC[C@@H]1CCC(=O)N1` [Example 132, 8-(2,2′-Dichloro-3′-(6-methoxy-5-(((((S)-5-oxopyrrolidin-2-yl)methyl)amino)methyl)pyridin-2-yl)-[1,1′-biphenyl]-3-yl)-3-((((R)-2-hydroxypropyl)amino)methyl)-4H-pyrido[1,2-a]pyrimidin-4-one] gave an IC50 of 1.7 nM. This IC50 is about 2.4-fold higher than that of the compound before. In the case of `Cc1c(COc2cc(OCc3cncc(C#N)c3)c(CNCCO)cc2Cl)cccc1-c1cccc(-n2ccc(CNCCO)cc2=O)c1C` [Example 23, 5-((4-Chloro-2-(((2-hydroxyethyl)amino)methyl)-5-((3′-(4-(((2-hydroxyethyl)amino)methyl)-2-oxopyridin-1(2H)-yl)-2,2′-dimethyl-[1,1′-biphenyl]-3-yl)methoxy)phenoxy)methyl)nicotinonitrile] it was 33 nM; in that of `COc1nc(-c2cccc(-c3cccc(-c4cc5c(=O)n(C)c(CNCCCF)nn5c4)c3Cl)c2Cl)ccc1CNC[C@@H]1CCC(=O)N1` [Example 437, (S)-6-(2,2′-Dichloro-3′-(6-methoxy-5-((((5-oxopyrrolidin-2-yl)methyl)amino)methyl)pyridin-2-yl)-[1,1′-biphenyl]-3-yl)-2-(((3-fluoropropyl)amino)methyl)-3-methylpyrrolo[2,1-f][1,2,4]triazin-4(3H)-one], 52 nM; in that of `COc1nc(-c2cccc(-c3cccc(-c4ccc5c(CNC[C@@H]6CCC(=O)N6)cn(C)c5c4)c3Cl)c2Cl)ccc1CNC[C@@H]1CCC(=O)N1` [Example 452, (5S)-5-[[[6-[2-Chloro-3-[2-chloro-3-[1-methyl-3-[[[(2S)-5-oxopyrrolidin-2-yl]methylamino]methyl]indol-6-yl]phenyl]phenyl]-2-methoxy-3-pyridyl]methylamino]methyl]pyrrolidin-2-one], 68 nM. The result for `COc1nc(-c2cccc(-c3cccc(-c4ccn5c(=O)c(CNC[C@@H]6CCC(=O)N6)cnc5c4)c3Cl)c2Cl)ccc1CN1CC[C@H](O)C1` [Example 175, 8-(2,2′-Dichloro-3′-(5-(((S)-3-hydroxypyrrolidin-1-yl)methyl)-6-methoxypyridin-2-yl)-[1,1′-biphenyl]-3-yl)-3-(((((S)-5-oxopyrrolidin-2-yl)methyl)amino)methyl)-4H-pyrido[1,2-a]pyrimidin-4-one] reads 0.1 nM; that for `COc1nc(-c2cccc(-c3cccc(-c4ccn5c(=O)c(CNC[C@H](C)N)cnc5c4)c3Cl)c2Cl)ccc1CNC[C@@H]1CCC(=O)N1` [Example 298, 3-[[[(2S)-2-Aminopropyl]amino]methyl]-8-[2-chloro-3-[2-chloro-3-[6-methoxy-5-[[[(2S)-5-oxopyrrolidin-2-yl]methylamino]methyl]-2-pyridyl]phenyl]phenyl]pyrido[1,2-a]pyrimidin-4-one], 25 nM; that for `COc1nc(-c2cccc(-c3cccc(-c4ccn5c(=O)c(CNCCN6CCS(=O)(=O)CC6)cnc5c4)c3Cl)c2Cl)ccc1CNC[C@@H]1CCC(=O)N1` [Example 266, (S)-8-(2,2′-dichloro-3′-(6-methoxy-5-((((5-oxopyrrolidin-2-yl)methyl)-amino)methyl)-pyridin-2-yl)-[1,1′-biphenyl]-3-yl)-3-(((2-(1,1-dioxidothiomorpholino)-ethyl)-amino)-methyl)-4H-pyrido[1,2-a]pyrimidin-4-one], 17.2 nM. The result for `COc1nc(-c2cccc(-c3cccc(-c4cc5c(=O)n(C)c(CNCC6CC(F)(F)C(=O)N6)nn5c4)c3Cl)c2Cl)ccc1CNC[C@@H]1CCC(=O)N1` (mixture of isomers) [Example 450, 6-[2-Chloro-3-[2-chloro-3-[6-methoxy-5-[[[rac-(2S)-5-oxopyrrolidin-2-yl]methylamino]methyl]-2-pyridyl]phenyl]phenyl]-2-[[(4,4-difluoro-5-oxo-pyrrolidin-2-yl)methylamino]methyl]-3-methyl-pyrrolo[2,1-f][1,2,4]triazin-4-one] reads 12 nM.

The compound `COc1nc(-c2cccc(-c3cccc(-c4ccn5c(=O)c(CN[C@@H](CO)C(=O)O)cnc5c4)c3Cl)c2Cl)ccc1CNC[C@@H]1CCC(=O)N1` [Example 151, ((8-(2,2′-Dichloro-3′-(6-methoxy-5-(((((S)-5-oxopyrrolidin-2-yl)methyl)amino)methyl)pyridin-2-yl)-[1,1′-biphenyl]-3-yl)-4-oxo-4H-pyrido[1,2-a]pyrimidin-3-yl)methyl)-L-serine] registered an IC50 of 0.3 nM. In the case of `COc1nc(-c2cccc(-c3cccc(-c4ccn5c(=O)c(CNC[C@@H]6CCC(=O)N6)cnc5c4)c3Cl)c2Cl)ccc1CN1CC(C)(O)C1` [Example 157, (S)-8-(2,2′-Dichloro-3′-(5-((3-hydroxy-3-methylazetidin-1-yl)methyl)-6-methoxypyridin-2-yl)-[1,1′-biphenyl]-3-yl)-3-((((5-oxopyrrolidin-2-yl)methyl)amino)methyl)-4H-pyrido[1,2-a]pyrimidin-4-one] it was 1.6 nM; in that of `COc1nc(-c2cccc(-c3cccc(-c4ccn5c(=O)c(CNC[C@@H]6C[C@H]6CO)cnc5c4)c3Cl)c2Cl)ccc1CNC[C@@H]1CCC(=O)N1` (racemic) [Example 245, 8-(2,2′-dichloro-3′-(6-methoxy-5-(((((S)-5-oxopyrrolidin-2-yl)-methyl)amino)-methyl)-pyridin-2-yl)-[1,1′-biphenyl]-3-yl)-3-(((((1R,2R)-2-(hydroxymethyl)-cyclopropyl)methyl)amino)-methyl)-4H-pyrido[1,2-a]pyrimidin-4-one], 2.1 nM; in that of `COc1nc(-c2cccc(-c3cccc(-c4ccn5c(=O)c(CN(C)C[C@H](C)O)cnc5c4)c3Cl)c2Cl)ccc1CNC[C@@H]1CCC(=O)N1` [Example 319, 8-[2-Chloro-3-[2-chloro-3-[6-methoxy-5-[[[(2S)-5-oxopyrrolidin-2-yl]methylamino]methyl]-2-pyridyl]phenyl]phenyl]-3-[[[(2S)-2-hydroxypropyl]-methyl-amino]methyl]pyrido[1,2-a]pyrimidin-4-one], 0.1 nM. The result for `COC(=O)CNCc1nn2cc(-c3cccc(-c4cccc(-c5ccc(CNC[C@@H]6CCC(=O)N6)c(OC)n5)c4Cl)c3Cl)cc2c(=O)n1C` [Example 482, Methyl 2-[[6-[2-chloro-3-[2-chloro-3-[6-methoxy-5-[[[(2S)-5-oxopyrrolidin-2-yl]methylamino]methyl]-2-pyridyl]phenyl]phenyl]-3-methyl-4-oxo-pyrrolo[2,1-f][1,2,4]triazin-2-yl]methylamino]acetate] reads 28 nM. The result for `COc1nc(-c2cccc(-c3cccc(-c4ccn5c(=O)c(CN6CC[C@H](C(=O)O)C6)cnc5c4)c3Cl)c2Cl)ccc1CNCCO` [Example 172, (S)-1-((8-(2,2′-Dichloro-3′-(5-(((2-hydroxyethyl)amino)methyl)-6-methoxypyridin-2-yl)-[1,1′-biphenyl]-3-yl)-4-oxo-4H-pyrido[1,2-a]pyrimidin-3-yl)methyl)pyrrolidine-3-carboxylic acid] reads 0.3 nM; that for `COc1nc(-c2cccc(-c3cccc(-c4ccn5c(=O)c(CNC[C@@H](O)CC(N)=O)cnc5c4)c3Cl)c2Cl)cc(F)c1CNC[C@@H]1CCC(=O)N1` [Example 275, (3S)-4-[[8-[2-Chloro-3-[2-chloro-3-[4-fluoro-6-methoxy-5-[[[(2S)-5-oxopyrrolidin-2-yl]methylamino]methyl]-2-pyridyl]phenyl]phenyl]-4-oxo-pyrido[1,2-a]pyrimidin-3-yl]methylamino]-3-hydroxy-butanamide], 0.1 nM; that for `COc1nc(-c2cccc(-c3cccc(-c4ccc5nc(CNC[C@H](C)O)cc(=O)n5c4)c3Cl)c2Cl)ccc1CNC[C@@H]1CCC(=O)N1` [Example 324, 7-(2,2′-Dichloro-3′-(6-methoxy-5-(((((S)-5-oxopyrrolidin-2-yl)methyl)amino)methyl)pyridin-2-yl)-[1,1′-biphenyl]-3-yl)-2-((((S)-2-hydroxypropyl)amino)methyl)-4H-pyrido[1,2-a]pyrimidin-4-one], 5.7 nM. Take `COc1nc(-c2cccc(-c3cccc(-c4cc(C)n5c(=O)c(CNC[C@@H]6CCC(=O)N6)cnc5c4)c3Cl)c2Cl)ccc1CNC[C@@H]1CCC(=O)N1` [Example 183, 8-(2,2′-Dichloro-3′-(6-methoxy-5-(((((S)-5-oxopyrrolidin-2-yl)methyl)amino)methyl)pyridin-2-yl)-[1,1′-biphenyl]-3-yl)-6-methyl-3-(((((S)-5-oxopyrrolidin-2-yl)methyl)amino)methyl)-4H-pyrido[1,2-a]pyrimidin-4-one]: the 50% inhibitory concentration (IC50) stood at 44 nM. The result for `COc1nc(-c2cccc(-c3cccc(-c4ccn5c(=O)c(CNCC(F)F)cnc5c4)c3Cl)c2Cl)ccc1CNC[C@@H]1CCC(=O)N1` [Example 297, 8-[2-Chloro-3-[2-chloro-3-[6-methoxy-5-[[[(2S)-5-oxopyrrolidin-2-yl]methylamino]methyl]-2-pyridyl]phenyl]phenyl]-3-[(2,2-difluoroethylamino)methyl]pyrido[1,2-a]pyrimidin-4-one] reads 320 nM; that for `Cn1cc(CNC[C@@H]2CCC(=O)N2)c2ccc(-c3cccc(-c4cccc(-c5ccc6c(CNC[C@@H]7CCC(=O)N7)cn(C)c6n5)c4Cl)c3Cl)nc21` [Example 417, (5S)-5-[[[6-[2-Chloro-3-[2-chloro-3-[1-methyl-3-[[[(2S)-5-oxopyrrolidin-2-yl]methylamino]methyl]pyrrolo[2,3-b]pyridin-6-yl]phenyl]phenyl]-1-methyl-pyrrolo[2,3-b]pyridin-3-yl]methylamino]methyl]pyrrolidin-2-one], 32 nM.

For the origin of these results see patent US20230143612A1 (Arbutus Biopharma Corporation, priority 2020, published 2023).
